Measurements taken from patent publication US9758550B2, “Cobalamin acquisition protein and use thereof” (Woods Hole Oceanographic Institution, priority 2012, dated 2017).
Like-named read-outs stand apart in the source and are kept apart here.

Tests used:
[1] = test system: T. pseudonana; assay: Re-supply experiment, growth via in vivo fluorescence; assay type: cell-based, Thalassiosira pseudonana
Protocol: (§1) A. Re-supply Experiment: For both colimitation experiments (T. pseudonana and P. tricornutum), each remaining culture was split in four just after the protein harvest time point. For the T. pseudonana study, the cultures were re-supplied with either 1) nothing, 2) 100 pM B12, 3) 400 nM Fetotal, or 4) both 100 pM B12 and 400 nM Fe. For the P. tricornutum study, the cultures were re-supplied with either 1) nothing, 2) 100 pM B12, 3) 100 nM Fetotal, or 4) both 100 pM B12 and 100 nM Fe.
(§2) For both studies, each culture was monitored for growth via in vivo fluorescence.

[2] = test system: P. tricornutum
Protocol: as §1, §2

[3] = test system: P. tricornutum cells; assay: Cobalamin (57Co-B12) uptake rate in P. tricornutum cell lines overexpressing CBA1; assay type: cell-based, Phaeodactylum tricornutum; conditions: CBA1 overexpression vs wild type and Urease-OE1; exponentially growing cells, B12-replete (100 pM B12), 24 hours
Protocol: B12 Uptake Rate Assessments: Inorganic ^57Co was removed from a carrier-free ^57Co-B12 stock solution (MP Biomedicals) via Chelex-100 (Price et al. (1988/1989) “Preparation and Chemistry of the Artificial Algal Culture Medium Aquil,” Biol Oceanogr 6: 443-461) and the remaining solution was used as a radiotracer in cultures of P. tricornutum. Strains (wild type, two cell lines overexpressing CBA1_48322 and one line overexpressing urease) were grown through three successive transfers into media as described above, with 100 pM B12 and 80 μg/mL zeocin added (zeocin not added to wild type). When the cells were in mid-exponential growth in the third transfer, each strain was used to inoculate (3%) three 28 mL polycarbonate tubes containing 20 mL of growth media with 100 pM B12 and 80 μg/mL zeocin and allowed to acclimate for 3 hours. […] B12 uptake was measured by assessing the percentage of added tracer that was taken up into the particulate fraction via gamma counting as previously described (Bertrand et al. (2007) supra) and assuming that total B12 concentrations were 100 pM for the period of uptake. Cell growth was monitored by fluorescence and then translated to cell number via calibration curves created during growth of the 3rd transfer. […]

C/C1=C2/[N-][C@H]([C@H](CC(N)=O)[C@@]2(C)CCC(=O)NC[C@H](C)OP(=O)([O-])O[C@H]2[C@@H](O)[C@@H](n3cnc4cc(C)c(C)cc43)O[C@@H]2CO)[C@]2(C)N=C(/C(C)=C3N=C(/C=C4N=C1[C@@H](CCC(N)=O)C\4(C)C)[C@@H](CCC(N)=O)[C@]\3(C)CC(N)=O)[C@@H](CCC(N)=O)[C@]2(C)CC(N)=O.[Co+2] (stereo in doubt) [cobalamin]
growth after re-supply ([1]; low cobalamin culture re-supplied with 100 pM B12): rescued the growth

iron
growth after re-supply ([2]; low cobalamin/low Fe culture, iron addition alone (100 nM Fe total)): rescued | growth after re-supply ([2]; low iron culture re-supplied with 100 nM Fe total): rescued the growth | growth after re-supply ([1]; low iron culture re-supplied with 400 nM Fe total): rescued the growth

B1: CBA1: cobalamin acquisition protein of P. tricornutum (isoform Pt48322), overexpressed as a YFP fusion in the native host (protein, listed as Phaeodactylum tricornutum)
chain: DEPPACLTSTADLSVDIFTDKVEPLFSQGWNVTYHNTYKIANNLFDNTTYLLYQCGSTPPADVVDNGNFNAVLEIPLSNVGLSQTPHIGFMEQLELVDEIAAFLTDTDFISSPCFLDEIAAGNVLTLVEPSEGVDAPATGNTALSAGTVAFVASFTQVPFDNTVNIQEYSELTNVAVFEWVKFFSVFFNKEHTANQVVEAAESRFDCVAQNAGAVQADNMPVKPVVLWAYYSDFCGGWDVAECPNYYCEFANACGAEIISSTEGNTTVCGAPYMTTEELVELGKDADHWIYPSSNWDTASETFGEQLQNMKAVQDQQVFDYQASGENAWFEQRYAEYYNVLADFCAVVGTTQPLTGRSWFRNVFTEPVGSLPDCSPTQSANILDDVHICFLPTTGGAAAGGGSGSGGSSAKAIAVGTAALAAGLLSLIHVLLF
modifications: YFP fusion
notes: cobalamin acquisition protein of P. tricornutum (isoform Pt48322), overexpressed as a YFP fusion in the native host
enhancement of cell specific radiolabeled cobalamin uptake rates [3]: 2 to 3 fold
